From patent publication US20200008426A1, “ACTIVE COMPOUND COMBINATIONS” (BAYER AKTIENGESELLSCHAFT, priority 2017, published 2020)

Test: LogP by HPLC on reversed phase columns (EEC directive 79/831 Annex V.A8)
Conditions: LC-UV; for LogP [a]: acidic range, 0.1% formic acid in water and acetonitrile; for LogP [b]: neutral range, 0.001 molar ammonium acetate in water and acetonitrile
Procedure: Measurement of LogP values was performed according to EEC directive 79/831 Annex V.A8 by HPLC (High Performance Liquid Chromatography) on reversed phase columns with the following methods:
Lambda-max-values were determined using UV-spectra from 200 nm to 400 nm and the peak values of the chromatographic signals.

SMILES | LogP [a] (Table 1, formula (I)) | further results
CC(O)(Cn1cncn1)c1ccc(Oc2ccc(Cl)c(Cl)c2)nc1Cl (centres unmarked) [I.32] | 3.09^[a] | 
CC(=O)c1ccc(Oc2ccc(Cl)cc2)nc1Cl [V.10] |  | LogP [a] (Table 2, formula (V)): 3.47; LogP [b] (Table 2, formula (V)): 3.36
OC(Cn1cncn1)c1ccc(Oc2ccc(Cl)cc2F)nc1C(F)(F)F (centres unmarked) [I.70] | 2.78^[a] | 
CC(=O)c1cnc(Oc2ccc(Cl)cc2)cc1Cl [V.22] |  | LogP [a] (Table 2, formula (V)): 3.51^[a]
CC(=O)c1cnc(Oc2ccc(Br)cc2)cc1C(F)(F)F [V.27] |  | LogP [a] (Table 2, formula (V)): 3.99^[a]
OC(Cn1cncn1)c1ccc(Oc2ccccc2)nc1Cl (centres unmarked) [I.13] | 1.98^[a] | 
COc1ccc(Oc2ccc(C(O)Cn3cncn3)c(Cl)n2)c(Cl)c1 (centres unmarked) [I.30] | 2.32^[a] | 
CC(O)(Cn1cncn1)c1ccc(Oc2ccc(Br)cc2)nc1C(F)(F)F (single isomer, unassigned) [I.101] | 2.94^[a] | 
OC(Cn1cncn1)c1cnc(Oc2ccc(S(F)(F)(F)(F)F)cc2)cc1C(F)(F)F (racemic) [I.36] | 3.15^[a] | 
CC(O)(Cn1cncn1)c1ccc(Oc2ccc(Cl)cc2)nc1Cl (single isomer, unassigned) [I.51] | 2.62^[a] | 
CC(O)(Cn1cncn1)c1ncc(Oc2ccccc2)cc1Cl (centres unmarked) [I.06] | 2.47 | LogP [b] (Table 1, formula (I)): 2.43
CC(O)(Cn1cncn1)c1cnc(Oc2ccccc2)cc1Cl (centres unmarked) [I.05] | 2.10 | LogP [b] (Table 1, formula (I)): 2.06
OC(Cn1cncn1)(c1ccc(Oc2ccc(C(F)(F)F)cc2)nc1C(F)(F)F)C1CC1 (centres unmarked) [I.87] | 3.57^[a] | 
CC(O)(Cn1cncn1)c1ccc(Oc2ccc(S(F)(F)(F)(F)F)cc2)nc1Cl (centres unmarked) [I.35] | 3.17^[a] | 
OC(Cn1cncn1)c1ccc(Oc2ccc(Br)cc2)nc1C(F)(F)F (centres unmarked) [I.40] | 2.82^[a] | 
CC(C)c1ccc(Oc2ccc(C(C)(O)Cn3cncn3)c(C(F)(F)F)n2)cc1 (centres unmarked) [I.75] | 3.35^[a] | 
Cc1ccc(Oc2ccc(C(C)(O)Cn3cncn3)c(Cl)n2)cc1Cl (centres unmarked) [I.29] | 3.00^[a] | 
CC(=O)c1cnc(Oc2ccc(Cl)cc2)cc1C(C)=O [V.19] |  | LogP [a] (Table 2, formula (V)): 3.11^[a]
O=Cc1ccc(Oc2ccc(C(=O)C3CC3)c(C(F)(F)F)n2)cc1 [V.42] |  | LogP [a] (Table 2, formula (V)): 3.21^[a]
CC(O)(Cn1cncn1)c1ccc(Oc2ccc(Cl)cc2F)nc1C(F)(F)F (centres unmarked) [I.66] | 2.80^[a] | 
CCC(O)(Cn1cncn1)c1ccc(Oc2ccc(Cl)cc2)nc1C(F)(F)F (racemic) [I.103] | 3.19^[a] | 
CC(=O)c1ccc(Oc2ccc(Cl)cc2)nc1C(F)F [V.05] |  | LogP [a] (Table 2, formula (V)): 3.35^[a]
OC(Cn1cncn1)c1ccc(Oc2ccc(C(F)(F)F)cc2)nc1C(F)(F)F (centres unmarked) [I.61] | 2.84^[a] | 
CC(O)(Cn1cncn1)c1ccc(Oc2ccc(OC(F)(F)F)cc2)nc1C(F)(F)F (racemic) [I.95] | 2.98^[a] | 
CC(O)(Cn1cncn1)c1cnc(Oc2ccc(Br)cc2)cc1C(F)F (centres unmarked) [I.82] | 2.78^[a] | 
CC(=O)c1ccc(Oc2ccc(Cl)cc2)nc1OC(F)(F)F [V.06] |  | LogP [a] (Table 2, formula (V)): 4.37^[a]

SMILES | LogP [a] (Table 1, formula (I)) | further results
CC(O)(Cn1cncn1)c1cnc(Oc2ccc(C(F)(F)F)cc2)cc1Cl (centres unmarked) [I.78] | 2.88^[a] | 
CC(O)(Cn1cncn1)c1ccc(Oc2ccc(F)cc2)nc1Oc1ccc(F)cc1 (centres unmarked) [I.77] | 3.13^[a] | 
CC(O)(Cn1cncn1)c1cnc(Oc2ccc(Br)cc2)cc1C(F)(F)F (centres unmarked) [I.49] | 2.96^[a] | 
OC(Cn1cncn1)(c1ccc(Oc2ccc(C(F)F)cc2)nc1C(F)(F)F)C1CC1 (centres unmarked) [I.93] | 3.13^[a] | 
CCC(O)(Cn1cncn1)c1cnc(Oc2ccc(C(F)(F)F)cc2)cc1C(F)(F)F (centres unmarked) [I.76] | 3.52^[a] | 
OC(Cn1cncn1)c1ccc(Oc2ccc(OC(F)(F)F)cc2)nc1Cl (centres unmarked) [I.12] | 2.73^[a] | 
OC(Cn1cncn1)c1ccc(Oc2ccccc2F)nc1Cl (centres unmarked) [I.19] | 2.08^[a] | 
CC(O)(Cn1cncn1)c1cnc(Oc2ccc(Cl)cc2)cc1C(F)(F)F (single isomer, unassigned) [I.46] | 2.93^[a] | 
OC(Cn1cncn1)c1cnc(Oc2ccc(Cl)cc2)cc1Cl (centres unmarked) [I.68] | 2.48^[a] | 
CC(=O)c1ccc(Oc2c(F)cc(Cl)cc2F)nc1C(F)(F)F [V.31] |  | LogP [a] (Table 2, formula (V)): 4.06^[a]
CC(=O)c1ccc(Oc2ccc(Cl)cc2)nc1F [V.24] |  | LogP [a] (Table 2, formula (V)): 3.51^[a]
OC(Cn1cncn1)c1ccc(Oc2ccc(C(F)F)cc2)nc1Cl (centres unmarked) [I.38] | 2.17^[a] | 
OC(Cn1cncn1)c1cnc(Oc2ccccc2)cc1Cl (centres unmarked) [I.21] | 1.92^[a] | 
CC(=O)c1cnc(Oc2ccc(Cl)cc2F)cc1C(F)(F)F [V.07] |  | LogP [a] (Table 2, formula (V)): 4.09^[a]
OC(Cn1cncn1)c1cnc(Oc2ccc(Cl)cc2F)cc1C(F)(F)F (centres unmarked) [I.57] | 2.86^[a] | 
OC(Cn1cncn1)c1cnc(Oc2ccc(C(F)F)cc2)cc1C(F)(F)F (centres unmarked) [I.55] | 2.55^[a] | 
OC(Cn1cncn1)(c1ccc(Oc2ccc(S(F)(F)(F)(F)F)cc2)nc1C(F)(F)F)C1CC1 (racemic) [I.97] | 3.80^[a] | 
CC(=O)c1ccc(Oc2ccc(C(F)(F)F)cc2)nc1C(F)(F)F [V.17] |  | LogP [a] (Table 2, formula (V)): 3.96^[a]
OC(Cn1cncn1)c1ccc(Oc2ccc(OC(F)(F)F)c(Cl)c2)nc1Cl (centres unmarked) [I.11] | 3.11^[a] | 
OC(Cn1cncn1)(c1ccc(Oc2ccc(Br)cc2)nc1C(F)(F)F)C1CC1 (single isomer, unassigned) [I.84] | 3.41 ^[a] | 
OC(Cn1cncn1)c1cnc(Oc2ccc(S(F)(F)(F)(F)F)cc2)cc1C(F)(F)F (single isomer, unassigned) [I.86] | 3.11^[a] | 
CC(O)(Cn1cncn1)c1ccc(Oc2ccc(Cl)cc2)nc1F (centres unmarked) [I.42] | 2.46^[a] | 
CC(O)(Cn1cncn1)c1ccc(Oc2ccc(Cl)cc2)nc1C(F)(F)F (centres unmarked) [I.67] | 2.68^[a] | 
OC(Cn1cncn1)c1ccc(Oc2ccc(Cl)cc2)nc1C(F)F (centres unmarked) [I.25] | 2.44^[a] | 
C=CC(O)(Cn1cncn1)c1cnc(Oc2ccc(C(F)(F)F)cc2)cc1C(F)(F)F (centres unmarked) [I.69] | 3.33^[a] | 
CC(O)(Cn1cncn1)c1ccc(Oc2ccc(F)cc2)nc1Cl (centres unmarked) [I.27] | 2.28^[a] | 

SMILES | LogP [a] (Table 1, formula (I)) | further results
CC(O)(Cn1cncn1)c1ccc(Oc2ccc(Cl)cc2)nc1Cl (racemic) [I.09] | 2.66^[a] | 
CC(O)(Cn1cncn1)c1cnc(Oc2ccc(Cl)cc2)cc1Cl (racemic) [I.08] | 2.50^[a] | 
CC(=O)c1ccc(Oc2ccccc2)nc1Cl [V.21] |  | LogP [a] (Table 2, formula (V)): 2.94; LogP [b] (Table 2, formula (V)): 2.85
CC(=O)c1ccc(Oc2ccc(F)cc2)nc1Cl [V.12] |  | LogP [a] (Table 2, formula (V)): 3.11^[a]
OC(Cn1cncn1)c1ccc(Oc2ccc(S(F)(F)(F)(F)F)cc2)nc1C(F)(F)F (centres unmarked) [I.60] | 3.08^[a] | 
CC(O)(Cn1cncn1)c1ccc(Oc2ccc(Cl)cc2)nc1C(F)(F)F (racemic) [I.96] | 2.68^[a] | 
OC(Cn1cncn1)c1ccc(Oc2ccc(Cl)c(Cl)c2)nc1Cl (centres unmarked) [I.10] | 2.80^[a] | 
CC(=O)c1cnc(Oc2ccc(S(F)(F)(F)(F)F)cc2)cc1C(F)(F)F [V.03] |  | LogP [a] (Table 2, formula (V)): 4.32^[a]
CC(O)(Cn1cncn1)c1ccc(Oc2ccc(S(F)(F)(F)(F)F)cc2)nc1C(F)(F)F (centres unmarked) [I.62] | 3.25^[a] | 
CC(O)(Cn1cncn1)c1cnc(Oc2ccc(S(F)(F)(F)(F)F)cc2)cc1C(F)(F)F (centres unmarked) [I.37] | 3.33^[a] | 
OC(Cn1cncn1)c1cnc(Oc2ccc(S(F)(F)(F)(F)F)cc2)cc1C(F)(F)F (single isomer, unassigned) [I.83] | 3.11^[a] | 
CC(O)(Cn1cncn1)c1cnc(Oc2ccc(C(F)F)cc2)cc1C(F)(F)F (centres unmarked) [I.56] | 2.73^[a] | 
CCCC(O)(Cn1cncn1)c1ccc(Oc2ccc(Cl)cc2)nc1C(F)(F)F (racemic) [I.100] | 3.55^[a] | 
CC(O)c1ccc(Oc2ccc(C(O)Cn3cncn3)c(Cl)n2)cc1 (centres unmarked) [I.24] | 1.48^[a] | 
O=C(c1ccc(Oc2ccc(S(F)(F)(F)(F)F)cc2)nc1C(F)(F)F)C1CC1 [V.43] |  | LogP [a] (Table 2, formula (V)): 4.67^[a]
CC(O)(Cn1cncn1)c1ccc(Oc2ccc(C(F)(F)F)cc2)nc1C(F)(F)F (centres unmarked) [I.65] | 3.04^[a] | 
OC(Cn1cncn1)c1cnc(Oc2ccc(C(F)(F)F)cc2)cc1Cl (centres unmarked) [I.88] | 2.64^[a] | 
CC(=O)c1cnc(Oc2ccc(OC(F)(F)F)cc2)cc1C(F)(F)F [V.15] |  | LogP [a] (Table 2, formula (V)): 4.20^[a]
OC(Cn1cncn1)c1ccc(Oc2ccc(S(F)(F)(F)(F)F)cc2)nc1Cl (centres unmarked) [I.34] | 2.90^[a] | 
OC(Cn1cncn1)c1ccc(Oc2ccc(Br)cc2)nc1C(F)F (centres unmarked) [I.73] | 2.50^[a] | 
OC(Cn1cncn1)c1cnc(Oc2ccc(OC(F)(F)F)cc2)cc1C(F)(F)F (centres unmarked) [I.43] | 3.00^[a] | 
CC(O)(Cn1cncn1)c1cnc(Oc2ccc(OC(F)(F)F)cc2)cc1C(F)(F)F (centres unmarked) [I.44] | 3.23^[a] | 
CC(=O)c1ccc(Oc2ccc(C(F)F)cc2)nc1Cl [V.14] |  | LogP [a] (Table 2, formula (V)): 3.15^[a]
CC(=O)c1ccc(Oc2ccc(Br)cc2)nc1C(F)(F)F [V.20] |  | LogP [a] (Table 2, formula (V)): 3.85^[a]
